Measured values: patent US9034863B2, “Compositions and methods for inhibiting entry of a hepatic virus” (The Board of Trustees of the University of Illinois, priority 2008, dated 2015)
“Also recorded” adds a separate entry of the source.

How the values were obtained:
[1] = test system: Huh7 cells; assay: Cytotoxicity assay (adenylate kinase release, TOXILIGHT); type: cell-based, human
From the text: (§1) The […] Plus Cell Proliferation assay kit (Lonza, Walkersville, Md.), which incorporates bioluminescent detection of cellular ATP as a measure of cell viability and proliferation, was used according to the manufacturer's instructions. Briefly, mock-treated and drug-treated cultures were lysed in Cell Lysis reagent for […]. One hundred μl of culture medium was transferred to white 96-well plates (BD Biosciences) containing ATP detection reagent and luminescence, expressed as relative light units (RLU), was measured (Fluostar OPTIMA). To assess drug-induced cellular toxicity, a bioluminescence-based assay (The TOXILIGHT BioAssay Kit, Lonza) that measures adenylate kinase (AK) released from damaged cells was used as per the manufacturer's instructions. […] One hundred μl of AK detection reagent was then added to each well, and luminescence (RLU) was measured (Fluostar OPTIMA).
(§2) To ensure that the inhibition observed was not due to ezetimibe-induced changes in cell proliferation or cytotoxicity, cellular ATP was measured as a read-out of Huh7 cell viability and proliferation and cellular toxicity by adenylate kinase release following treatment with increasing doses of ezetimibe. […] Furthermore, to test the specificity of the observed HCV inhibition, the effect of ezetimibe on entry of another flavivirus, Dengue virus (DNV), was assessed.

[2] = test system: HCV genotype 1b subgenomic replicon; assay: HCV sg1b replicon RNA replication in Huh7 cells, RT-qPCR; type: cell-based, Hepatitis C virus (HCV); settings: increasing doses, 72 hours
[3] = test system: HCV; assay: Prevention of HCV infection in mice with chimeric human livers; type: in vivo; settings: 10 mg/kg/day oral gavage from ~7 days prior to infection
From the text: Alternatively, severe combined immunodeficient (SCID)/urokinase plasminogen activator (uPA) mice can be used. Mice are transplanted with primary human hepatocytes according to conventional methods (Azuma, et al. (2007) Nat. Biotechnol. 25:903-910; Bissig, et al. (2007) Proc. Natl. Acad. Sci. USA 104:20507-20511) and monitored for two months post-transplantation to assess repopulation efficiency by measuring human albumin serum levels. Using these models, mice can be assessed for the prevention of HCV infection or the inhibition of an already established infection.
Mice are injected with HCV positive human serum (of any HCV genotype) and HCV RNA serum levels are quantified daily and/or weekly to assess the efficacy with which the treatments reduces the amplification of HCV RNA levels. Evidence that ezetimibe reduces the amplification HCV levels in vivo, as compared to untreated animals, provides in vivo evidence that ezetimibe is an effective treatment for HCV in patients.

[4] = test system: Huh7 cells; assay: Cell proliferation assay (cellular ATP, […] Plus); type: cell-based, human; settings: increasing doses
From the text: as §1, §2

[5] = test system: HCVcc; assay: Secretion of infectious HCVcc, extracellular infectivity titration; type: cell-based, Hepatitis C virus (HCV); settings: 30 μM, 24-96 hours post-treatment
Protocol: Cell supernatants were serially diluted 10-fold in cDMEM and 100 μl was used to infect, in triplicate, 4×10^3 naïve Huh7 cells per well in 96-well plates (BD Biosciences). The inoculum was incubated with cells for 24 hours at 37° C. and then overlayed with 150 μl complete DMEM containing 0.4% methylcellulose (w/v) (Fluka BioChemika, Switzerland) to give a final concentration of 0.25% methylcellulose. Seventy-two hours post-infection, medium was removed, cells were fixed with 4% paraformaldehyde (Sigma) and immunohistochemical staining for HCV E2 was performed. […] The HCV E2 glycoprotein was detected by incubation at room temperature with 1×PBS containing 0.5% (v/v) TRITON X-100 and 3% (w/v) BSA and a 1:500 dilution of the human monoclonal anti-HCV E2 antibody C1. Bound C1 was subsequently detected by a 1 hour incubation with a 1:1000 dilution of an HRP-conjugated anti-human antibody (Pierce, Rockford, Ill.) followed by a 30 minute incubation with an AEC detection substrate (BD Biosciences). […] Viral infectivity titers are expressed as FFU per milliliter of supernatant (FFU/ml), determined by the average number of E2-positive foci detected in triplicate samples at the highest HCV-positive dilution.
Huh7 cultures were inoculated with HCVcc at an MOI of 0.01 FFU cell-1. […] Infectivity titers are expressed as mean FFU/ml±SD for triplicate samples.

[6] = test system: JFH-1; assay: Infectivity of intracellular virus from naringenin-treated cells; type: cell-based, Hepatitis C virus (HCV); settings: standard cell-free infection of naïve Huh7-1 cells
Protocol: To determine the nature of the intracellular JFH-1 virion particles which are able to spread from cell-to-cell, even in the absence of secretion, the buoyant density of the accumulated, intracellular particles from naringenin-treated cells were analyzed on iodixanol gradients. It was observed that the peak of RNA from these cells was shifted towards the heavier fractions consistent with the intracellular particles in naringenin-treated cells being less lipidated. Infectivity of the intracellular virus from naringenin-treated cells was reduced by more than 95% in a standard cell-free virus infection of naïve Huh7-1 cells.

Compound	cellular toxicity (adenylate kinase release) ([1]; increasing doses)	cytotoxicity ([1]; treatment of Huh7 cells for 12 hours, concentrations tested)	sg1b HCV RNA steady-state levels [2]	establishment of HCV infection (serum HCV RNA) [3]	cell proliferation (cellular ATP) [4]	secretion of infectious HCVcc (infectivity titers) [5]	reduction of infectivity of intracellular virus [6]
O=C1[C@H](CC[C@H](O)c2ccc(F)cc2)[C@@H](c2ccc(O)cc2)N1c1ccc(F)cc1 [ezetimibe, 1-(4-fluorophenyl)-(3R)-[3-(4-fluorophenyl)-(3S)-hydroxypropyl]-(45)-(4-hydroxyphenyl)-2-azetidinone]	did not inhibit cell proliferation or induce cellular toxicity	not cytotoxic	did not inhibit HCV subgenomic RNA replication; also recorded: no significant reduction	prevents the establishment of HCV infection	did not inhibit cell proliferation	did not inhibit secretion of infectious HCVcc	
O=C1C[C@@H](c2ccc(O)cc2)Oc2cc(O)cc(O)c21 [naringenin]							more than 95%
